Columns and labels:
Assay type in all cases: biochemical
[1] = target: T1, MERTK (Homo sapiens, UniProt Q12866); assay: MERTK enzymatic assay (Kinase Glo); conditions: purified kinase, ATP 12 μM, read-out: MER Enzymatic Inhibition (%)
T1 sequence (Q12866 21-999): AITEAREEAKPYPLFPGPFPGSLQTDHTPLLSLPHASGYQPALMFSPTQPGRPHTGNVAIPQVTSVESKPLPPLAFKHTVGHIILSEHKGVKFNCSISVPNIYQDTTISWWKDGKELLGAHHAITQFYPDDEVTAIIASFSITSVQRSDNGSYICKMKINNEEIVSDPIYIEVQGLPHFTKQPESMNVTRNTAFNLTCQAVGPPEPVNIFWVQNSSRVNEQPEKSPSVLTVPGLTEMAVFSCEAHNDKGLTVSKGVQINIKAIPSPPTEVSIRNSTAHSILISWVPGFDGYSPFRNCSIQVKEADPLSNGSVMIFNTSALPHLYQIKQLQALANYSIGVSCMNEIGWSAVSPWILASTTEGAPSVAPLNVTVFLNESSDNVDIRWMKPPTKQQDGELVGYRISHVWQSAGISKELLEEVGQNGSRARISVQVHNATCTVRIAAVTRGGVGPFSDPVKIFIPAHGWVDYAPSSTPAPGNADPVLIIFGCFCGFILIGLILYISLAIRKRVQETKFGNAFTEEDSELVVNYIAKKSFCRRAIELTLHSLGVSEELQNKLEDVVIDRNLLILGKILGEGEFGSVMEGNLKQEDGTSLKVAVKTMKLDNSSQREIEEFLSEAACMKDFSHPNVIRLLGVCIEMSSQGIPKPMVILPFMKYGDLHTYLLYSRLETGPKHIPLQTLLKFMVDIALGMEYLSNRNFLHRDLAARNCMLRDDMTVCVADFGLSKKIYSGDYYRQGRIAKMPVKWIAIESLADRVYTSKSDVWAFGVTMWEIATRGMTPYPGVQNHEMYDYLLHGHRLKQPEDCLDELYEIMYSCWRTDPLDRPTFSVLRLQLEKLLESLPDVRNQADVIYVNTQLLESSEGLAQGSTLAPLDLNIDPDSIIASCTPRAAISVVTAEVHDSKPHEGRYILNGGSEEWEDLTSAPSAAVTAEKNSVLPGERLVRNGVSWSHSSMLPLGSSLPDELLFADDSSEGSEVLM
Method: (§1) A purified kinase (AXL or MERTK) was incubated with a compound or DMSO (control) for 15 minutes in an assay buffer (25 mM Tri s pH 7.4, 10 mM MgCl2, 4 mM MnCl2, 2 mM DTT, 0.0100 BSA, 0.02% TritonX-100, 0.0100 Brij35 and 0.5 mM Na3VO4 for MERTK; and 40 mM Tri s pH 7.4, 20 mM MgCl2, 2 mM DTT, 0.01% BSA and 0.5 mM Na3VO4 for AXL). […] The mixture was incubated for 3 hours at 30° C. The luminescence was calculated to determine the kinase activity using a Kinase Glo assay kit for MERTK and an ADP-Glo Kinase Assay kit for AXL following the manufacture's instructions (Promega Corp., Madison, Wisconsin).
(§2) A study was conducted to compare exemplary compounds of formula (I) in inhibiting TAM activities, including MERTK, AXL, and TYRO3. An enzymatic assay was used in the study. A purified Kinase (i.e., MERTK, AXL, or TYRO3) was incubated with a compound or DMSO (control) for around 15 minutes in an assay buffer (25 mM Tris pH 7.4, 10 mM MgCl2, 4 mM MnCl2, 2 mM DTT, 0.01% BSA, 0.02% TritonX-100, 0.01% Brij35 and 0.5 mM Na3VO4 for MERTK; 40 mM Tris pH 7.4, 20 mM MgCl2, 2 mM DTT, 0.01% BSA and 0.5 mM Na3VO4 for AXL; and 25 mM Tris pH 7.4, 10 mM MgCl2, 4 mM MnCl2, 2 mM DTT, 0.01% BSA and 0.5 mM Na3VO4 for TYRO3). […] The mixture was incubated for 3 hours at 30° C. The luminescence was calculated to determine the kinase activity using a Kinase Glo assay kit for MERTK and an ADP-Glo Kinase assay kit for AXL and TYRO3 following the manufacture's instructions (Promega). Inhibition rates and half maximal inhibitory concentration (IC50) values were calculated. High percentage inhibition rates and low IC50 values are indicatives of high potency of the test compound.

[2] = target: T2, AXL (Homo sapiens, UniProt P30530); assay: AXL enzymatic assay (ADP-Glo); conditions: purified kinase, ATP 50 μM, read-out: AXL Enzymatic Inhibition (%)
T2 sequence (P30530 26-894): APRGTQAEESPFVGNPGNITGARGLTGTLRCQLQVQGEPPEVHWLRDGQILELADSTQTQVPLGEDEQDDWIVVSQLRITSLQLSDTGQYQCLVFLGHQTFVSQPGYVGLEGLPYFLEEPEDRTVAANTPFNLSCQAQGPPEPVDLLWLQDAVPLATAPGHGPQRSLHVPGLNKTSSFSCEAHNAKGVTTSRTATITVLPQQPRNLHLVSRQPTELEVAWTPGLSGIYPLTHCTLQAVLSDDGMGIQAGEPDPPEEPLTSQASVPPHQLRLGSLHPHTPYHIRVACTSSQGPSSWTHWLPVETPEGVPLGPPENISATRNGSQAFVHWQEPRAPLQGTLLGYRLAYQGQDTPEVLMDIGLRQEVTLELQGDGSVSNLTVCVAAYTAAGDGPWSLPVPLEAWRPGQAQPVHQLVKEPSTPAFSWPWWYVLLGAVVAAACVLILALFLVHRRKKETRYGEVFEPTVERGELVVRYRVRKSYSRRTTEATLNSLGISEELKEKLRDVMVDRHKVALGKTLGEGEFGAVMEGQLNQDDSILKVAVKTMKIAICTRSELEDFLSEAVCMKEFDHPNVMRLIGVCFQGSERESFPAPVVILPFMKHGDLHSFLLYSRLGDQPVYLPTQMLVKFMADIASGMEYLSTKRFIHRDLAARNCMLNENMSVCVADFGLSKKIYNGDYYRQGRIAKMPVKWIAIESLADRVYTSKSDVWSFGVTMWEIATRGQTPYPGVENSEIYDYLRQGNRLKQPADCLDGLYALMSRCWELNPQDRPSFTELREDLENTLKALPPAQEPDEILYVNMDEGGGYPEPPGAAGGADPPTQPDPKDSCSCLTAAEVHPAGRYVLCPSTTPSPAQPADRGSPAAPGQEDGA
Method: as §1, §2

[3] = tested on: MER/AXL; assay: Dual MER/AXL inhibition (enzymatic); conditions: class for both MER and AXL
Method: as §1

Structure (SMILES) | IC50 [1] | IC50 [2] | IC50 [3]
CC(=O)Nc1cccc(-c2c(-c3cnn(C)c3)oc3ncnc(Oc4ccc(NC(=O)c5cccn(-c6ccc(F)cc6C)c5=O)cc4)c23)c1 [Compound 74] | 0.1 to 50 µM | 0.1 to 50 µM | 0.1 to 50 µM
CN(C(=O)c1cccn(-c2ccc(F)cc2)c1=O)c1ccc(Oc2ncnc3oc(-c4cnn(C)c4)c(-c4cccc(N(C)S(C)(=O)=O)c4)c23)cc1 [Compound 64] | 0.1 to 50 µM | 0.1 to 50 µM | 0.1 to 50 µM
Cn1cc(-c2oc3ncnc(Oc4ccc(NC(=O)c5cccn(-c6ccc(F)cc6)c5=O)nc4)c3c2-c2cccc(N)c2)cn1 [Compound 52] | 0.02 to 0.1 µM | < 0.02 µM | 0.02 to 0.1 µM
CCOc1ccn(-c2ccc(F)cc2)c(=O)c1C(=O)Nc1ccc(Oc2ncnc3oc(-c4cnn(C)c4)c(-c4cccc(N)c4)c23)cc1 [Compound 19] | 0.02 to 0.1 µM | < 0.02 µM | 0.02 to 0.1 µM
CN(C)Cc1cccc(-c2n[nH]c3ncnc(Oc4ccc(NC(=O)c5cccn(-c6ccc(F)cc6)c5=O)cc4)c23)c1 [Compound 88] | 0.02 to 0.1 µM | < 0.02 µM | 0.02 to 0.1 µM
Nc1cccc(-c2n[nH]c3ncnc(Oc4ccc(NC(=O)c5cccn(-c6ccc(F)cc6)c5=O)cc4)c23)c1 [Compound 36] | 0.1 to 50 µM | 0.02 to 0.1 µM | 0.1 to 50 µM
CC(=O)Nc1cccc(-c2c[nH]c3ncnc(Oc4ccc(NC(=O)c5cn(C)n(-c6ccc(F)cc6)c5=O)cc4)c23)c1 [Compound 125] | 0.1 to 50 µM | 0.1 to 50 µM | 0.1 to 50 µM
Nc1cccc(-c2c(-c3ccccc3)oc3ncnc(Oc4ccc(NC(=O)c5cccn(-c6ccc(F)cc6)c5=O)cc4)c23)c1 [Compound 9] | 0.1 to 50 µM | 0.1 to 50 µM | 0.1 to 50 µM
CN1CCN(c2ccc(-c3c(-c4cnn(C)c4)oc4ncnc(Oc5ccc(NC(=O)c6cccn(-c7ccc(F)cc7)c6=O)cc5)c34)cc2)CC1 [Compound 34] | < 0.02 µM | < 0.02 µM | < 0.02 µM
CC(=O)Nc1cccc(-c2coc3ncnc(Oc4ccc(NC(=O)c5cccn(-c6ccc(F)cc6)c5=O)cc4)c23)c1 [Compound 47] | 0.1 to 50 µM | 0.02 to 0.1 µM | 0.1 to 50 µM
CN(C)Cc1ccccc1-c1c(-c2cnn(C)c2)oc2ncnc(Oc3ccc(NC(=O)c4cccn(-c5ccc(F)cc5)c4=O)cc3)c12 [Compound 91] | 0.1 to 50 µM | 0.1 to 50 µM | 0.1 to 50 µM
CC(=O)Nc1cccc(-c2c(-c3ccsc3)oc3ncnc(Oc4ccc(NC(=O)c5cccn(-c6ccc(F)cc6)c5=O)cc4)c23)c1 [Compound 59] | 0.1 to 50 µM | < 0.02 µM | 0.1 to 50 µM
CCNc1cccc(-c2c(-c3cnn(C)c3)oc3ncnc(Oc4ccc(NC(=O)c5cn(C)n(-c6ccc(F)cc6)c5=O)cc4)c23)c1 [Compound 178] | 0.1 to 50 µM | < 0.02 µM | 0.1 to 50 µM
CC(=O)Nc1cccc(-c2c(-c3cn(C)nc3C)oc3ncnc(Oc4ccc(NC(=O)c5cccn(-c6ccc(F)cc6)c5=O)cc4)c23)c1 [Compound 27] | 0.1 to 50 µM | < 0.02 µM | 0.1 to 50 µM
Cn1cc(-c2oc3ncnc(Oc4ccc(NC(=O)c5cccn(-c6ccccc6)c5=O)cc4)c3c2-c2cccc(N)c2)cn1 [Compound 54] | 0.02 to 0.1 µM | < 0.02 µM | 0.02 to 0.1 µM
CNc1cccc(-c2c[nH]c3ncnc(Oc4ccc(NC(=O)c5cccn(-c6ccc(F)cc6)c5=O)cc4)c23)c1 [Compound 22] | 0.1 to 50 µM | 0.02 to 0.1 µM | 0.1 to 50 µM
O=C(Nc1ccc(Oc2ncnc3ccsc23)cc1)c1cccn(-c2ccc(F)cc2)c1=O [Compound 41] | 0.1 to 50 µM | 0.02 to 0.1 µM | 0.1 to 50 µM
O=C(Nc1ccc(Oc2ncnc3oc(-c4ccccc4)cc23)cc1)c1cccn(-c2ccc(F)cc2)c1=O [Compound 42] | 0.1 to 50 µM | 0.1 to 50 µM | 0.1 to 50 µM
Cn1cc(-c2oc3ncnc(Oc4ccc(NC(=O)c5cn(C)n(-c6ccc(F)cc6)c5=O)cc4)c3c2-c2cccc(CN3CCOCC3)c2)cn1 [Compound 127] | 0.1 to 50 µM | < 0.02 µM | 0.1 to 50 µM
Cn1cc(-c2oc3ncnc(Oc4ccc(NC(=O)c5cn(C)n(-c6ccc(F)cc6)c5=O)cc4)c3c2-c2cccc(N3CCCCC3=O)c2)cn1 [Compound 176] | 0.1 to 50 µM | 0.1 to 50 µM | 0.1 to 50 µM
CC(=O)Nc1cccc(-c2c(-c3c(C)noc3C)oc3ncnc(Oc4ccc(NC(=O)c5cccn(-c6ccc(F)cc6)c5=O)cc4)c23)c1 [Compound 26] | 0.1 to 50 µM | 0.1 to 50 µM | 0.1 to 50 µM
Cn1cc(-c2oc3ncnc(Oc4ccc(NC(=O)c5cc6c(n(-c7ccc(F)cc7)c5=O)CCCC6=O)cc4)c3c2-c2cccc(N)c2)cn1 [Compound 68] | 0.02 to 0.1 µM | < 0.02 µM | 0.02 to 0.1 µM
CC(=O)Nc1cccc(-c2n[nH]c3ncnc(Oc4ccc(NC(=O)c5cccn(-c6ccc(F)cc6)c5=O)cc4)c23)c1 [Compound 35] | 0.1 to 50 µM | 0.02 to 0.1 µM | 0.1 to 50 µM
Cn1cc(-c2cc3c(Oc4ccc(NC(=O)c5cccn(-c6ccc(F)cc6)c5=O)cc4)ncnc3[nH]2)cn1 [Compound 78] | 0.02 to 0.1 µM | < 0.02 µM | 0.02 to 0.1 µM
Cn1cc(-c2oc3ncnc(Oc4ccc(NC(=O)c5ccc[nH]c5=O)cc4)c3c2-c2cccc(N)c2)cn1 [Compound 77] | 0.1 to 50 µM | 0.1 to 50 µM | 0.1 to 50 µM
O=C(Nc1ccc(Oc2nc(Cl)nc3[nH]ccc23)cc1)c1cccn(-c2ccc(F)cc2)c1=O [Compound 5] | 0.1 to 50 µM | 0.1 to 50 µM | 0.1 to 50 µM
CC(=O)Nc1cccc(-c2c(-c3cnn(C)c3)oc3ncnc(Oc4ccc(NC(=O)c5cccn(-c6cccc(F)c6)c5=O)cc4)c23)c1 [Compound 57] | 0.1 to 50 µM | < 0.02 µM | 0.1 to 50 µM

Reference: patent US20260070911A1, “INHIBITORS OF TAM RECEPTORS” (National Health Research Institutes, priority 2022, published 2026)
